Experiments:
[1] = biological target: T1, Ephrin type-B receptor 3 (Homo sapiens) (UniProt P54753); assay: Residual activity of human EPHB3 using poly[Glu:Tyr] (4:1) as substrate at 1 uM in presence of 32P-ATP by Hotspot assay relative to control
T1 sequence (whole entry): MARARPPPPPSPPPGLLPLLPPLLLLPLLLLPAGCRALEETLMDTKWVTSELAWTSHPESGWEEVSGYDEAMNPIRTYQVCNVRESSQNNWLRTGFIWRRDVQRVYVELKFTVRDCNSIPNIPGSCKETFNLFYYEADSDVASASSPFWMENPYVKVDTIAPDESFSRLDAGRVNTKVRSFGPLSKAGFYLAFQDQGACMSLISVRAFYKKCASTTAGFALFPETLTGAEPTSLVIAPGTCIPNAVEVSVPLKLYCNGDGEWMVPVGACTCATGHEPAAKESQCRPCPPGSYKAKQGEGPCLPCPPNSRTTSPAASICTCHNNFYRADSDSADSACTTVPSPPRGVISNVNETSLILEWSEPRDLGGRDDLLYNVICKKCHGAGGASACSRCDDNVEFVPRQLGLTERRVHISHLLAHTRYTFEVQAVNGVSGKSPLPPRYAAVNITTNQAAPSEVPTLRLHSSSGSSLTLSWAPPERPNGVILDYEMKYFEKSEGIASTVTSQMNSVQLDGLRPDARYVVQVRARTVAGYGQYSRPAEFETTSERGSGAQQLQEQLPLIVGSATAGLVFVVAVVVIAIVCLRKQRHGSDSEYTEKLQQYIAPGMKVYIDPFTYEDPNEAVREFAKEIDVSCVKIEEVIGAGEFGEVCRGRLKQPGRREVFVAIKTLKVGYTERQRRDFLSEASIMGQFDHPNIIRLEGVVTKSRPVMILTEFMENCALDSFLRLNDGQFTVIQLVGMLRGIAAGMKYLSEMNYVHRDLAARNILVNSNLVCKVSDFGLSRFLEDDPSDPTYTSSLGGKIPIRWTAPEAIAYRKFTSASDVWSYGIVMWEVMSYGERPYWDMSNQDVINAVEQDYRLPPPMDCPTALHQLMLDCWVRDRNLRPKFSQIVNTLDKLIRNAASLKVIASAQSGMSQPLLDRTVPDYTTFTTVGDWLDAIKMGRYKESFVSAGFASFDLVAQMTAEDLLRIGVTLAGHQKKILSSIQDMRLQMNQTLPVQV

[2] = biological target: Mitogen-activated protein kinase 9 (Homo sapiens) (UniProt P45984); assay: Inhibition of human JNK2 using ATF2 as substrate at 1 uM in presence of 32P-ATP by Hotspot assay relative to control; values are per cent of control
[3] = biological target: T2, Discoidin domain-containing receptor 2 (Homo sapiens) (UniProt Q16832); assay: Inhibition of human DDR2 using KKSRGDYMTMQIG as substrate at 1 uM in presence of 32P-ATP by Hotspot assay relative to control; values are per cent of control
T2 sequence (whole entry): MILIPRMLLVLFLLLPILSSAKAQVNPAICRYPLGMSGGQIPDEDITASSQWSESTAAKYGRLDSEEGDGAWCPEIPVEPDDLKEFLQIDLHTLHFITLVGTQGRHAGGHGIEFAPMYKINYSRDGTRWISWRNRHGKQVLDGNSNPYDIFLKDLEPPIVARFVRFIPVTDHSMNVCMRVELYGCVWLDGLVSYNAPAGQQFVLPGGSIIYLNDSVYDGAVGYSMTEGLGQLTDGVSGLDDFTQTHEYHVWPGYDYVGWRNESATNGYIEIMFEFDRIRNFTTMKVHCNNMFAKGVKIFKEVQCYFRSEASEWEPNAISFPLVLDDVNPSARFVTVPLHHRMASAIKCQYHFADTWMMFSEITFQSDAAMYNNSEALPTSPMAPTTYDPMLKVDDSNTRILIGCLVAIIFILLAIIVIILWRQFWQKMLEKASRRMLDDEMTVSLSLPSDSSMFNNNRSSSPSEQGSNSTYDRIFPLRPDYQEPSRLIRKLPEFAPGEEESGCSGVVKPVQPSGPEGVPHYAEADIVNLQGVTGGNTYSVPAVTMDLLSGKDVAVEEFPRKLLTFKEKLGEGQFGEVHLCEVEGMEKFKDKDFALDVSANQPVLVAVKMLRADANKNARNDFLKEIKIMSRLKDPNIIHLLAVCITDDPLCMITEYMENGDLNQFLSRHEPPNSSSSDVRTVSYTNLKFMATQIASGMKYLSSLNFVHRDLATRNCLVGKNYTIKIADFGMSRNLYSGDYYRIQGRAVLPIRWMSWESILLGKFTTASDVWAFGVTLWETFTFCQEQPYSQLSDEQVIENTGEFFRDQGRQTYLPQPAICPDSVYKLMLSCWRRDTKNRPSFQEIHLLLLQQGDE

[4] = biological target: Casein kinase I isoform gamma-2 (Homo sapiens) (UniProt P78368); assay: Inhibition of human CK1g2 using KRRRAL[pS]VASLPGL as substrate at 1 uM in presence of 32P-ATP by Hotspot assay relative to control; values are per cent of control
[5] = biological target: Tyrosine-protein kinase Fes/Fps (Homo sapiens) (UniProt P07332); assay: Inhibition of human FES/FPS using poly[Glu:Tyr] (4:1) as substrate at 1 uM in presence of 32P-ATP by Hotspot assay relative to control; values are per cent of control
[6] = biological target: T3, 3-phosphoinositide-dependent protein kinase 1 (Homo sapiens) (UniProt O15530); assay: Inhibition of human PDK1/PDPK1 using KTFCGTPEYLAPEVRREPRILSEEEQEMFRDFDYIADWC as substrate at 1 uM in presence of 32P-ATP by Hotspot assay relative to control; values are per cent of control
T3 sequence (whole entry): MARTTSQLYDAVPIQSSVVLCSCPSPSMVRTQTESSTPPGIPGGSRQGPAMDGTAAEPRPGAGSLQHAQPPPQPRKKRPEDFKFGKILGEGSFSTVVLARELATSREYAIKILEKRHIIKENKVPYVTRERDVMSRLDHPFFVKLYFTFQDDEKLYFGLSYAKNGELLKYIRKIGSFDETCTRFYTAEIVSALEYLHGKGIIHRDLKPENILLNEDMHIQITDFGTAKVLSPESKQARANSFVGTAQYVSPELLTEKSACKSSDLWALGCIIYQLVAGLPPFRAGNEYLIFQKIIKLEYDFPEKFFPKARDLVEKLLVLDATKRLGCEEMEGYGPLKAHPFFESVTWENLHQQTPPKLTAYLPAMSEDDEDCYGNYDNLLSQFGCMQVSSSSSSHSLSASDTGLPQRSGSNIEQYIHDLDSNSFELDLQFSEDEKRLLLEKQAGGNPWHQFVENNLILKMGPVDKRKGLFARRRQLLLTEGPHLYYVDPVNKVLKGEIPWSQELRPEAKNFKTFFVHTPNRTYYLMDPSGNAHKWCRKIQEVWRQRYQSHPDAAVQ

Chain of Casein kinase I isoform gamma-2 (Homo sapiens) (P78368 whole entry, looked up, canonical isoform): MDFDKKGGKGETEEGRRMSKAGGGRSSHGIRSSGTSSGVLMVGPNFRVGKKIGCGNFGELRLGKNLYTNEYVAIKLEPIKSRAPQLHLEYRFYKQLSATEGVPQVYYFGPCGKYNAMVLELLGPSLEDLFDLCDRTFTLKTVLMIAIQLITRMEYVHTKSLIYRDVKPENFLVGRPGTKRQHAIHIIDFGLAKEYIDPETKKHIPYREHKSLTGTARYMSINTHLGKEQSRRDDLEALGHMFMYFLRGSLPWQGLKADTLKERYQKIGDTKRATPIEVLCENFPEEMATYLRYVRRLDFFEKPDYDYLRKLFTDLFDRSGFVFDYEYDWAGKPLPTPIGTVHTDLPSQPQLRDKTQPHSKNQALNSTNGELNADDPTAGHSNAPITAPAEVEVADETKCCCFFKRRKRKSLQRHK
Chain of Tyrosine-protein kinase Fes/Fps (Homo sapiens) (P07332 whole entry): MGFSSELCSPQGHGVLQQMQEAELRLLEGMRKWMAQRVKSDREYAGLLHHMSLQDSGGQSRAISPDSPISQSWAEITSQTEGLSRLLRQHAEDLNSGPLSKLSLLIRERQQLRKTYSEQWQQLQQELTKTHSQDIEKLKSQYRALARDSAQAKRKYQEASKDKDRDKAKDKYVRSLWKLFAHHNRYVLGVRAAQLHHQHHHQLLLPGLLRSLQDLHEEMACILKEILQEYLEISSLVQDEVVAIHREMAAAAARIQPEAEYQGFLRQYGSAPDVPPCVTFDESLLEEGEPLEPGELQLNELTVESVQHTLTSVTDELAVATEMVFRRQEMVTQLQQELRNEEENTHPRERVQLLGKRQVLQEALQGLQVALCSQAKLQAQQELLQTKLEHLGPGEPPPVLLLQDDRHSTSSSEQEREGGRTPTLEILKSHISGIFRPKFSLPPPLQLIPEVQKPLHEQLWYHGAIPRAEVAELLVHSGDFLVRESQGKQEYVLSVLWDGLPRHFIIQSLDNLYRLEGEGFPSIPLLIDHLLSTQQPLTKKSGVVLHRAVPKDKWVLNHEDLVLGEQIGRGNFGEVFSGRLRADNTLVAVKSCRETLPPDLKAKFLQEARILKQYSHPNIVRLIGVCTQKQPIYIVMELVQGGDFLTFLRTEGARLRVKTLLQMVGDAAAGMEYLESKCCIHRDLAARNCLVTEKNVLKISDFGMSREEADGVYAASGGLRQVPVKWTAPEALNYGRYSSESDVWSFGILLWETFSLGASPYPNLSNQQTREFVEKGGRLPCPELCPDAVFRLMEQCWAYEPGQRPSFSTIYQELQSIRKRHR
Chain of Mitogen-activated protein kinase 9 (Homo sapiens) (P45984 whole entry, looked up, the tested form may be a part): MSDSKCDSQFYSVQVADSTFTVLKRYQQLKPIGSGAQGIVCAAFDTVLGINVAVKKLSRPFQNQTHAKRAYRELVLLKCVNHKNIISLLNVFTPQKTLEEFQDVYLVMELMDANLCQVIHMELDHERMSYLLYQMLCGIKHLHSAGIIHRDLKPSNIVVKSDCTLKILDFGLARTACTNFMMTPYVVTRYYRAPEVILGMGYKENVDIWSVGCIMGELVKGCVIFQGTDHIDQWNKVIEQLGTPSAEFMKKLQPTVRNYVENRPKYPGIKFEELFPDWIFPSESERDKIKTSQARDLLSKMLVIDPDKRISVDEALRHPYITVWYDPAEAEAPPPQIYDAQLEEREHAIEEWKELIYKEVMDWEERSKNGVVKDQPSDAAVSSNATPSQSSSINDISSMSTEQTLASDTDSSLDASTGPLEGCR

Compound	residual activity [1] [%]	residual activity [2] [%]	residual activity [3] [%]	residual activity [4] [%]	residual activity [5] [%]	residual activity [6] [%]
Cc1cc(-c2cnc(N)c3c(-c4ccc5scnc5c4)csc23)n(C)n1	91.4	69.7	88.8	79.1	95	101
CC(C)S(=O)(=O)c1ccc2nccc(Nc3ccc4scnc4c3)c2c1	61.2	106	102	100	86.1	98.6
CNC(=O)c1ccc2c(c1)ncn2-c1ccc(CC(=O)OC(C)(C)C)cc1	93.6	96.6	98.7	91.8	98.1	100

Source: ChEMBL document CHEMBL5649166, “RIP3 induces apoptosis independent of pronecrotic kinase activity” (Mol Cell, 2014)
